Legend:
[1] = system: A549 cells; experiment: A549 Cell Growth Inhibition Test (MTT Assay); format: cell-based; conditions: Homo sapiens, 72 h incubation
Experimental: A549 Cell Growth Inhibition Test (MTT Assay)
1. Cell strains: […] (human lung caner cell strains);
Culture medium: 90% F12K+10% FBS;
(§1) 1. A plate (10 cm) of cells in logarithmic growth phase normally cultured was collected;
2. The culture solution was sucked out. Tthe plate was washed with 5 ml of PBS 1-2 times;
(§2) 3. PBS was sucked out. 2 ml of 0.25% pancreatin was added to infiltrate the cells for 1 min;
4. The pancreatin was sucked out. The culture plate was placed in an incubator. Digestion was carried out for about 2 min at 37° C.;
(§3) 5. 4 ml of complete culture solution was added to the culture plate to stop the digestion. The cells were carefully scoured with micropipette (1 ml) to give a uniform cell suspension. The suspension was implanted into a 96-well cell culture plate by 2500 cells/100 μl per well. The culture plate was incubated overnight under 5% CO2 at 37° C. In day 2, 100 μl of culture solution comprising a compound was added in each well, and further incubated for 72 h under 5% CO2 at 37° C.
(§4) 6. The culture solution was sucked out;
7. 100 μl of serum-free culture solution containing 0.5 mg/ml MTT was added in each well, and incubated for 3 h;
(§5) 8. The culture solution was carefully sucked out;
(§6) 9. 100 μl of DMSO was added in each well and vibrated to dissolve;
(§7) 10. OD values were determined at 490 nM.
(§8) 1. Calculation of Relative Inhibition Ratio The inhibition ratio of a compound on cell growth=(PC−n)/(PC−NC)×100%
(§9) IC50: Concentration of a compound where inhibition ratio was 50%. IC50 values were fitted with Origin7.5.

[2] = system: LoVo cells; experiment: LoVo Cell Growth Inhibition Test (MTT Assay); format: cell-based; conditions: Homo sapiens, 72 h incubation
Experimental: LoVo Cell Growth Inhibition Test (MTT Assay)
1. Cell strains: LoVo (human intestinal cancer cell strains);
as §1
2. The culture solution was sucked out. The plate was washed with 5 ml of PBS 1-2 times;
as §2
4. The pancreatin was sucked out. The culture plate was placed in an incubator. Digestion was carried out for about 4 min at 37° C.;
as §3, with “added in” for “added to”, “by 3000-4000” for “by 2500”, “added into” for “added in”
as §4
7. 100 μl of serum-free culture solution containing 0.5 mg/ml MTT was added in each well, and incubated for 4 h;
as §5, §6, §7, §8, §9

[3] = system: A431 cells; experiment: A431 Cell Growth Inhibition Test (MTT Assay); format: cell-based, human; conditions: for IC50 / inhibition at 1 µM: Homo sapiens; for IC50: A-431, 68 h incubation; for inhibition at 1 µM: A-431, 68 h, read-out: Growth Inhibition Ratio (%)
Summary of the method: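 Cells seeded at 2500/well in DMEM/F12 with 10% FBS, grown overnight, then exposed to compound for 68 h at 37 °C, 5% CO2. Viability by MTT (0.5 mg/ml, 4 h), DMSO-solubilised, OD 490 nm; IC50 is concentration giving 50% growth inhibition relative to controls.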

[4] = system: BT-474 cells; experiment: BT-474 Cell Growth Inhibition Test (SRB Assay); format: cell-based, human; conditions: 70 h incubation; for IC50 / inhibition at 1 µM: Homo sapiens; for inhibition at 1 µM: BT-474, 70 h, read-out: Growth Inhibition Ratio (%)
Summary of the method: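 Human breast tumour BT-474 cells (1×10^5/ml seeding, overnight) exposed to compound 70 h at 37 °C, 5% CO2; TCA-fixed, SRB-stained, dye dissolved in 10 mM Tris and OD read at 570 nm. Inhibition ratio = (PC−n)/(PC−NC)×100%; IC50 is the concentration giving 50% inhibition, from fitted curves.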

IC50 [1] [µM] | IC50 [2] [µM] | IC50 [3] [µM] | IC50 [4] [µM] | Compound | inhibition at 1 µM ([4]; compound 1 μM) [%] | Growth Inhibition Ratio (%) ([3]; compound 1 μM, 68 h incubation) | Growth Inhibition Ratio (%) ([4]; compound 1 μM) | inhibition at 1 µM ([3]; compound 1 μM, 68 h incubation) [%]
1 | 3.3 | 0.026 | 0.129 | C#Cc1cccc(Nc2c(C#N)cnc3cc(O[C@H]4CCOC4)c(NC(=O)/C=C/CN4CCCCC4)cc23)c1 [Example 144, (S,E)-N-(3-CYANO-4-(3-ETHYNYLPHENYLAMINO)-7-(TETRAHYDROFURAN-3-YL-OXY)QUINOLIN-6-YL)-4-(PIPERIDIN-1-YL)-BUT-2-ENAMIDE] | – | – | – | –
3.4 | 1.8 | 0.358 | 0.035 | CN(C)C/C=C/C(=O)Nc1cc2c(Nc3ccc(OCc4ccc(Cl)cc4)c(Cl)c3)c(C#N)cnc2cc1OC1CCOC1 (centres unmarked) [Example 16, (E)-N-(4-(4-(4-CHLOROBENZYLOXY)-3-CHLOROPHENYLAMINO)-3-CYANO-7-(TETRAHYDROFURAN-3-YL-OXY)QUINOLIN-6-YL)-4-(DIMETHYLAMINO)-BUT-2-ENAMIDE] | 72 | – | – | –
– | 6.6 | 0.062 | 0.0104 | N#Cc1cnc2cc(O[C@H]3CCOC3)c(NC(=O)/C=C/CN3CCOCC3)cc2c1Nc1ccc(OCc2ccccn2)c(Cl)c1 [Example 152, (S,E)-N-(4-(3-CHLORO-4-(PYRIDIN-2-YL-METHOXY)PHENYLAMINO)-3-CYANO-7-(TETRAHYDROFURAN-3-YL-OXY)QUINOLIN-6-YL)-4-(MORPHOLIN-4-YL)-BUT-2-ENAMIDE] | 78 | – | – | –
2 | 2 | 0.147 | 0.008 | CN(C)C/C=C/C(=O)Nc1cc2c(Nc3ccc(OCc4ccccc4)c(Cl)c3)c(C#N)cnc2cc1OC1CCOC1 (centres unmarked) [Example 12, (E)-N-(4-(4-(BENZYLOXY)-3-CHLOROPHENYLAMINO)-3-CYANO-7-(TETRAHYDROFURAN-3-YL-OXY)QUINOLIN-6-YL)-4-(DIMETHYLAMINO)-BUT-2-ENAMIDE] | – | – | – | –
1.3 | 8.57 | 0.024 | 0.041 | C#Cc1cccc(Nc2c(C#N)cnc3cc(OC4CCOC4)c(NC(=O)/C=C/CN(C)C)cc23)c1 (centres unmarked) [Example 5, (E)-N-(3-CYANO-4-(3-ETHYNYLPHENYLAMINO)-7-(TETRAHYDROFURAN-3-YL-OXY)QUINOLIN-6-YL)-4-(DIMETHYLAMINO)-BUT-2-ENAMIDE] | – | 85 | 85 | –
6.7 | – | 0.071 | 0.654 | C#Cc1cccc(Nc2c(C#N)cnc3cc(O[C@H]4CCOC4)c(NC(=O)/C=C/CN4CCOCC4)cc23)c1 [Example 145, (S,E)-N-(3-CYANO-4-(3-ETHYNYLPHENYLAMINO)-7-(TETRAHYDROFURAN-3-YL-OXY)QUINOLIN-6-YL)-4-(MORPHOLIN-4-YL)-BUT-2-ENAMIDE] | 75 | – | – | –
0.9 | 2 | 0.081 | 0.0036 | CN(C)C/C=C/C(=O)Nc1cc2c(Nc3ccc(OCc4ccccn4)c(Cl)c3)c(C#N)cnc2cc1OC1CCOC1 (centres unmarked) [Example 21, (E)-N-(4-(3-CHLORO-4-(PYRIDIN-2-YL-METHOXY)PHENYLAMINO)-3-CYANO-7-(TETRAHYDROFURAN-3-YL-OXY)QUINOLIN-6-YL)-4-(DIMETHYLAMINO)-BUT-2-ENAMIDE] | – | – | – | –
0.8 | 7.63 | 0.05 | 0.096 | C#Cc1cccc(Nc2c(C#N)cnc3cc(O[C@@H]4CCOC4)c(NC(=O)/C=C/CN(C)C)cc23)c1 [Example 141, (R,E)-N-(3-CYANO-4-(3-ETHYNYLPHENYLAMINO)-7-(TETRAHYDROFURAN-3-YL-OXY)QUINOLIN-6-YL)-4-(DIMETHYLAMINO)-BUT-2-ENAMIDE] | 89 | – | – | 80
6.4 | 5.6 | 0.053 | 0.0072 | CC(C)(C)NC/C=C/C(=O)Nc1cc2c(Nc3ccc(OCc4ccccn4)c(Cl)c3)c(C#N)cnc2cc1O[C@H]1CCOC1 [Example 153, (S,E)-N-(4-(3-CHLORO-4-(PYRIDIN-2-YL-METHOXY)PHENYLAMINO)-3-CYANO-7-(TETRAHYDROFURAN-3-YL-OXY)QUINOLIN-6-YL)-4-(TERT-BUTYLAMINO)-BUT-2-ENAMIDE] | – | – | – | –
3.9 | 2.2 | 0.37 | 0.0081 | CN(C)C/C=C/C(=O)Nc1cc2c(Nc3ccc(OCc4cccc(C#N)c4)c(Cl)c3)c(C#N)cnc2cc1OC1CCOC1 (centres unmarked) [Example 15, (E)-N-(4-(4-(3-CYANOBENZYLOXY)-3-CHLOROPHENYLAMINO)-3-CYANO-7-(TETRAHYDROFURAN-3-YL-OXY)QUINOLIN-6-YL)-4-(DIMETHYLAMINO)-BUT-2-ENAMIDE] | 71 | – | – | 91
1.5 | 7.5 | 0.059 | 0.149 | C#Cc1cccc(Nc2c(C#N)cnc3cc(O[C@H]4CCOC4)c(NC(=O)/C=C/CN(CC)CC)cc23)c1 [Example 143, (S,E)-N-(3-CYANO-4-(3-ETHYNYLPHENYLAMINO)-7-(TETRAHYDROFURAN-3-YL-OXY)QUINOLIN-6-YL)-4-(DIETHYLAMINO)-BUT-2-ENAMIDE] | 87 | – | – | 70
2.4 | 2 | 0.194 | 0.017 | Cc1ccccc1COc1ccc(Nc2c(C#N)cnc3cc(OC4CCOC4)c(NC(=O)/C=C/CN(C)C)cc23)cc1Cl (centres unmarked) [Example 17, (E)-N-(4-(4-(2-METHYLBENZYLOXY)-3-CHLOROPHENYLAMINO)-3-CYANO-7-(TETRAHYDROFURAN-3-YL-OXY)QUINOLIN-6-YL)-4-(DIMETHYLAMINO)-BUT-2-ENAMIDE] | – | – | – | –
0.6 | 2.2 | 0.093 | 0.0039 | CN(C)C/C=C/C(=O)Nc1cc2c(Nc3ccc(OCc4ccccn4)c(Cl)c3)c(C#N)cnc2cc1O[C@@H]1CCOC1 [Example 139, (R,E)-N-(4-(3-CHLORO-4-(PYRIDIN-2-YL-METHOXY)PHENYLAMINO)-3-CYANO-7-(TETRAHYDROFURAN-3-YL-OXY)QUINOLIN-6-YL)-4-(DIMETHYLAMINO)-BUT-2-ENAMIDE] | 81 | – | – | 90
1.5 | 2.1 | 0.062 | 0.003 | CN(C)C/C=C/C(=O)Nc1cc2c(Nc3ccc(OCc4ccccn4)c(Cl)c3)c(C#N)cnc2cc1O[C@H]1CCOC1 [Example 138, (S,E)-N-(4-(3-CHLORO-4-(PYRIDIN-2-YL-METHOXY)PHENYLAMINO)-3-CYANO-7-(TETRAHYDROFURAN-3-YL-OXY)QUINOLIN-6-YL)-4-(DIMETHYLAMINO)-BUT-2-ENAMIDE] | 82 | – | – | 89
1.6 | 1.6 | 0.184 | 0.0079 | CN(C)C/C=C/C(=O)Nc1cc2c(Nc3ccc(OCc4cccc(Cl)c4)c(Cl)c3)c(C#N)cnc2cc1OC1CCOC1 (centres unmarked) [Example 11, (E)-N-(4-(4-(3-CHLOROBENZYLOXY)-3-CHLOROPHENYLAMINO)-3-CYANO-7-(TETRAHYDROFURAN-3-YL-OXY)QUINOLIN-6-YL)-4-(DIMETHYLAMINO)-BUT-2-ENAMIDE] | – | – | – | –
– | 2.3 | 0.089 | 0.212 | C#Cc1cccc(Nc2c(C#N)cnc3cc(O[C@H]4CCOC4)c(NC(=O)/C=C/CN(C)Cc4ccccc4)cc23)c1 [Example 149, (S,E)-N-(3-CYANO-4-(3-ETHYNYLPHENYLAMINO)-7-(TETRAHYDROFURAN-3-YL-OXY)QUINOLIN-6-YL)-4-(N-METHYLBENZYLAMINO)-BUT-2-ENAMIDE] | 79 | – | – | –
7 | – | 0.053 | 0.236 | C#Cc1cccc(Nc2c(C#N)cnc3cc(O[C@H]4CCOC4)c(NC(=O)/C=C/CNC(C)(C)C)cc23)c1 [Example 146, (S,E)-N-(3-CYANO-4-(3-ETHYNYLPHENYLAMINO)-7-(TETRAHYDROFURAN-3-YL-OXY)QUINOLIN-6-YL)-4-(TERT-BUTYLAIMINO)-BUT-2-ENAMIDE] | – | – | – | –

— patent US9187458B2, “Cyanoquinoline derivatives” (Tianjin Hemay Bio-Tech Co., LTD., priority 2010, dated 2015)
